In the NIST ThermoML archive (doi:10.1021/acs.jced.9b00424):

Assay: xn = mol fraction of the nth substance listed
Conditions: for viscosity: 100 kPa, Concentric cylinders viscometry; for viscosity / mass density: Liquid; for mass density: 101 kPa, Vibrating tube method; for surface tension liquid-gas: Pendant drop shape

CCCCCCCC(=O)O [octanoic acid] + CC(C)[C@@H]1CC[C@@H](C)C[C@H]1O
Conditions | mass density [kg/m3] | surface tension liquid-gas [mN/m] | viscosity [mPa·s]
323.15 K, x2 = 0 | 886.2 | – | –
323.15 K, x2 = 0.25 | 884.6 | – | –
323.15 K, x2 = 0.333 | 884 | – | –
323.15 K, x2 = 0.5 | 882.6 | – | 4.79
323.15 K, x2 = 0.667 | 880.9 | – | 5.78
323.15 K, x2 = 0.75 | 879.5 | – | 6.12
323.52 K, x2 = 0.667 | – | 19.52 | –
323.58 K, x2 = 0.25 | – | 20.1 | –
323.61 K, x2 = 0.75 | – | 20.72 | –
327.39 K, x2 = 0 | – | 24.46 | –
328.11 K, x2 = 0.75 | – | 20.22 | –
328.15 K, x2 = 0 | 880.9 | – | 2.609
328.15 K, x2 = 0.25 | 879.5 | – | 3.25
328.15 K, x2 = 0.333 | 878.9 | – | 3.51
328.15 K, x2 = 0.5 | 877.6 | – | 4.11
328.15 K, x2 = 0.667 | 875.9 | – | 4.83
328.15 K, x2 = 0.75 | 874.4 | – | 5.05
328.35 K, x2 = 0.5 | – | 20.44 | –
328.41 K, x2 = 0.333 | – | 22.47 | –
328.48 K, x2 = 0.667 | – | 19.19 | –
328.93 K, x2 = 0.25 | – | 19.73 | –
331.72 K, x2 = 0 | – | 23.43 | –
332.7 K, x2 = 0.75 | – | 19.65 | –
332.78 K, x2 = 0.333 | – | 21.79 | –
332.97 K, x2 = 0.5 | – | 19.47 | –
333.15 K, x2 = 0 | 876 | – | 2.372
333.15 K, x2 = 0.25 | 874.7 | – | 2.9
333.15 K, x2 = 0.333 | 874.1 | – | 3.1
333.15 K, x2 = 0.5 | 872.9 | – | 3.56
333.15 K, x2 = 0.667 | 871.2 | – | 4.09
333.15 K, x2 = 0.75 | 869.4 | – | 4.22
333.27 K, x2 = 0.667 | – | 18.98 | –
333.38 K, x2 = 0.25 | – | 19.41 | –
338.15 K, x2 = 0 | 871.4 | – | 2.166
338.15 K, x2 = 0.25 | 870.1 | – | 2.595
338.15 K, x2 = 0.333 | 869.6 | – | 2.753
338.15 K, x2 = 0.5 | 868.4 | – | 3.11
338.15 K, x2 = 0.667 | 866.7 | – | 3.49
338.15 K, x2 = 0.75 | 864.6 | – | 3.56
343.15 K, x2 = 0 | 867.1 | – | 1.985
343.15 K, x2 = 0.25 | 865.9 | – | 2.336
343.15 K, x2 = 0.333 | 865.4 | – | 2.461
343.15 K, x2 = 0.5 | 864.3 | – | 2.732
343.15 K, x2 = 0.667 | 862.6 | – | 3.02
343.15 K, x2 = 0.75 | 860 | – | 3.04
348.15 K, x2 = 0 | 863 | – | 1.826
348.15 K, x2 = 0.25 | 862 | – | 2.113
348.15 K, x2 = 0.333 | 861.5 | – | 2.212
348.15 K, x2 = 0.5 | 860.4 | – | 2.419
348.15 K, x2 = 0.667 | 858.7 | – | 2.625
348.15 K, x2 = 0.75 | 855.7 | – | 2.635
353.15 K, x2 = 0 | 859.3 | – | 1.683
353.15 K, x2 = 0.25 | 858.3 | – | 1.921
353.15 K, x2 = 0.333 | 857.9 | – | 1.996
353.15 K, x2 = 0.5 | 856.7 | – | 2.156
353.15 K, x2 = 0.667 | 855.1 | – | 2.301
353.15 K, x2 = 0.75 | 851.6 | – | 2.324
